Experimental data reported in US6605459B2, “Methods for measuring cysteine and determining cysteine synthase activity” (Paradigm Genetics, Inc., priority 2001, dated 2003).

Biological target: T1, cysteine synthase (Arabidopsis thaliana, UniProt Q9S6Z7)
T1 construct: made in house; host or cells: E. coli BL21(DE3)lysS (pET30/CS) or Sf-9 insect cells (baculovirus, pFB/CS)
Assay: Assay tolerance of DMSO in the cysteine synthase assay
Type: biochemical
Conditions: 0 to 2% DMSO (by volume)
Description: A cysteine synthase assay was performed using various amounts of DMSO to test the assay compatibility of the DMSO. The results are shown in FIG. 24, where all values are the mean of triplicate determinations, and standard deviations are indicated.

T1 sequence (Q9S6Z7 whole entry): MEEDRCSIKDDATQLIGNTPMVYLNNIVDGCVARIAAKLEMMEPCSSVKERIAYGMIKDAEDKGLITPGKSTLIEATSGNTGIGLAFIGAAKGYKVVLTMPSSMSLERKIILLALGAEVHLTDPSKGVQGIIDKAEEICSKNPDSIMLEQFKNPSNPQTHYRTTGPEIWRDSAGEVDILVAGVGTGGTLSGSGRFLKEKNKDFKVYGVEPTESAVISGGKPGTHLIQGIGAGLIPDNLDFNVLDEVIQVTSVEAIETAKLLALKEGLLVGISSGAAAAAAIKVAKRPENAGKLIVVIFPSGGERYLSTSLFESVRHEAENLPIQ

C[S+](C)[O-] [DMSO, dimethyl sulfoxide]
inhibitory effect on cysteine synthase activity: No inhibitory effect
